Results taken from US8461360B2, “Process for producing γ -mangostin” (Laila Nutraceuticals, priority 2008, dated 2013).

How the values were obtained:
[1] = Superoxide radical scavenging activity (NBT method); type: biochemical; conditions: riboflavin/NBT, 560 nm
Protocol: Superoxide radical scavenging activity of test substances was determined by the method of McCord and Fridovich (J. Biol. Chem., 244, 6049, 1969). The assay mixture contained EDTA (6.6 mM containing 3 μg NaCN), riboflavin (2 μM), NBT (50 μM), phosphate buffer (67 mM, pH 7.8) in a final volume of 3 mL and various concentrations of test substances. The tubes were mixed well and optical densities were measured at 560 nm. The tubes were uniformly illuminated with an incandescent lamp for 15 min. and the optical densities were measured again at 560 nm. The percentage inhibition of superoxide radical generation was measured by comparing the absorbance values of control and those of the test substances. The IC50 values were obtained from the plot drawn of the concentration (μg) verses percentage inhibition.

[2] = DPPH free radical scavenging activity; type: biochemical; conditions: methanolic DPPH solution
Protocol: DPPH free radical scavenging activity was measured by the method of Lamaison, et al., (Pharma Acta Helv. 1991; 66:185) based on the reduction of colored methanolic solution of the DPPH. Free radical scavenging ability of each test substances added to the methanolic solution of DPPH was inversely proportional to the difference in initial and final absorption of DPPH solution at […] Antioxidant activity is expressed as the 50% inhibitory concentration (IC50). The reaction mixture contained 1×10^−4 mM methanolic solution of DPPH and various concentrations of the test substances. Percentage inhibition was determined by comparing the absorbance values of test and control tubes. The IC50 values were obtained from the plot drawn of the concentration (μg) verses percentage inhibition.

[3] = system: Freund Complete Adjuvant induced arthritis; assay: Freund Complete Adjuvant induced arthritis model, paw edema; type: in vivo, Sprague Dawley rats; conditions: prednisolone 10 mg/kg body weight for 14 days, positive control; vs CMC control
Protocol: The anti-inflammatory efficacies of α-mangostin and γ-mangostin were evaluated by an in vivo study in Freund Complete Adjuvant induced arthritis model of Sprague Dawley rats. The rats of either sex were randomly selected and divided into […] containing five animals in each group. The treatment group rats were supplemented with 25 mg/kg body weight of α-mangostin or γ-mangostin, or prednisolone (10 mg/kg body weight) for 14 days. The animals of control group received similar volume of 1% CMC only. At the 14 th day, Freund Complete Adjuvant (FCA) was injected subcutaneously in the sub-plantar region of the left hind paw of each animal. At the end of experiment, the animals were sacrificed and liver tissue samples were excised and stored in aliquot at −80° C. Blood samples were collected from each animal at a regular interval and paw volumes were measured by Plethysmography equipment at the day of FCA injection and after 13 days of FCA inoculation. The difference in volume of edema at the day of FCA injection and at 13th day after induction is considered as the inflammatory response. The in vivo anti-inflammatory response of α-mangostin, γ-mangostin and prednisolone was estimated by calculating the percentage of inhibition of paw edema when compared with the CMC supplemented control.

potato 5-lipoxygenase = assay: 5-Lipoxygenase enzyme inhibitory activity; type: biochemical; conditions: 80 μM linoleic acid, pH 6.3, absorbance 234 nm
Protocol: 5-Lipoxygenase enzyme inhibitory activity was measured using the method of Schewe, et. al. (Adv Enzymol, Vol 58: pp 191-272, 1986), that was modified by Reddanna, et. al., (Methods of Enzymology, Vol 187: pp 268-277, 1990). The assay mixture contained 80 μM linoleic acid and sufficient amount of potato 5-lipoxygenase in 50 mM phosphate buffer (pH 6.3). The reaction was initiated by the addition of enzyme buffer mix to linoleic acid and the enzyme activity was monitored as the increase in absorbance at 234 nm. The reaction was monitored for 120 sec and the inhibitory potential of the test substances was measured by incubating various concentrations of test substances α-mangostin and γ-mangostin two minutes before the addition of linoleic acid. All assays were performed three times. The IC50 values were calculated from the plot drawn of the concentrations of test substances versus percentage inhibition.

[4] = system: aP2 (Adipocyte fatty acid binding protein); assay: Down-regulation of aP2 protein expression in LPS induced THP-1 derived macrophages (Western blot); type: cell-based, human; conditions: 5 μg/ml pre-treatment 2 h, LPS 100 ng/ml 16 h, normalized with actin
Protocol: Down-regulation of aP2 protein expression by γ-mangostin and α-mangostin was evaluated in a cell based in vitro model. Briefly, equal number of THP-1 monocyte cells were plated in 40 mm tissue culture petri-dishes and the cells were differentiated to macrophages by treatment with 10 nM Phorbol myristate acetate (PMA) for 24 h. The attached cells in the culture dishes were washed with serum free and phenol red free DMEM; and the differentiated macrophage cells were pre-treated for 2 h with 5 μg/ml of either γ-mangostin or α-mangostin or 0.1% DMSO in serum free DMEM supplemented with 2% BSA. Thereafter, the cells were primed with 100 ng/ml of LPS for 16 h to induce the inflammatory response. The 0.1% DMSO treated cells without LPS treatment were considered as vehicle control. […] The protein content was measured by Coomassie blue based Bradford method and equal amount of cellular protein lysates (2 μg) was resolved in 15% SDS-Polyacrylamide gels. […] The aP2 protein expression was specifically detected by chemiluminescent substrate (Pierce, USA); detection of chemiluminescent bands and densitometric analyses were carried out on Kodak 4000 MM image station (supplied by Kodak, USA). The same nitrocellulose blots were stripped and re-probed with anti-actin antibody (Sigma Chemical CO, USA) and actin protein expression was recorded as an indication of equal protein loading in each, lane. […]

IKK = conditions: Biochem. Pharmacol. reference; cited from earlier work

| SMILES | NBT method IC50 [1] | DPPH method IC50 [2] | inhibition of paw edema [3] | 5-Lipoxygenase inhibitory activity IC50 values (potato 5-lipoxygenase) | inhibition of aP2 protein expression [4] | inhibition of IKK activity (IKK) |
| --- | --- | --- | --- | --- | --- | --- |
| O=C1O[C@H]([C@@H](O)CO)C(O)=C1O [Vitamin C] | 123.6 mg/L | 3.7 mg/L |  |  |  |  |
| C[C@]12C=CC(=O)C=C1CC[C@@H]1[C@@H]2[C@@H](O)C[C@@]2(C)[C@H]1CC[C@]2(O)C(=O)CO [prednisolone] |  |  | 54% |  |  |  |
| COc1c(O)cc2oc3cc(O)c(CC=C(C)C)c(O)c3c(=O)c2c1CC=C(C)C [α-Mangostin, 1,3,6-trihydroxy-7-methoxy-2,8-bis-(3-methyl-but-2-only) -xanthen-9-one] | 61.8 mg/L | >100 mg/L |  | 2.7 mg/L | inhibition of aP2 protein expression |  |
| CC(C)=CCc1c(O)cc2oc3cc(O)c(O)c(CC=C(C)C)c3c(=O)c2c1O [γ-Mangostin, 2,8-bis[(2E)-3-methylbut-2-only)-1,3,6,7-tetrahydroxyxanthen-9-one] | 8.7 mg/L | 9.7 mg/L |  | 0.5 mg/L | more potent inhibitor of aP2 in vitro compared to α-mangostin | directly inhibits IKK activity |
